This is an account of results in US8557998B2, “Benzylpiperizine compound” (Dainippon Sumitomo Pharma Co., Ltd, priority 2008, dated 2013).

The target in data set [1] is T1, human serotonin transporter (h-SERT) (Homo sapiens, UniProt P31645).
T1 construct: expressed in transfected cells; host or cells: CHO cells (h-SERT/CHO), Geneticin-selected
In words: Serotonin transporter function inhibition test using [3H]5-HT. It counts as cell-based. To be noted: h-SERT/CHO cells, [3H]5-HT uptake approximately 10 nM, 37° C. 10 minutes; read-out: Test Example 5: h-SERT Function Inhibition Constant (Ki). Here is the method:
1-1 Cells Used and Preparation of Cell Suspension
CHO cells containing a human serotonin transporter (h-SERT) expressed therein (h-SERT/CHO) were used in the experiment. […] The collected cells were suspended in a buffer solution containing 0.1 mM CaCl2 and 1 mM MgCl2 in PBS (hereinafter, referred to as PBSCM) and stored in ice until use.
Specifically, 149 μl of the cell suspension (10×10^4 cells/well) and 1 μl of a solution of a test drug dissolved in dimethyl sulfoxide were preincubated at 37° C. for 10 minutes.

Data set [2] addresses T2, human serotonin 1A receptor (h-5-HT1A) (Homo sapiens, UniProt P08908).
T2 sequence (P08908 1-422): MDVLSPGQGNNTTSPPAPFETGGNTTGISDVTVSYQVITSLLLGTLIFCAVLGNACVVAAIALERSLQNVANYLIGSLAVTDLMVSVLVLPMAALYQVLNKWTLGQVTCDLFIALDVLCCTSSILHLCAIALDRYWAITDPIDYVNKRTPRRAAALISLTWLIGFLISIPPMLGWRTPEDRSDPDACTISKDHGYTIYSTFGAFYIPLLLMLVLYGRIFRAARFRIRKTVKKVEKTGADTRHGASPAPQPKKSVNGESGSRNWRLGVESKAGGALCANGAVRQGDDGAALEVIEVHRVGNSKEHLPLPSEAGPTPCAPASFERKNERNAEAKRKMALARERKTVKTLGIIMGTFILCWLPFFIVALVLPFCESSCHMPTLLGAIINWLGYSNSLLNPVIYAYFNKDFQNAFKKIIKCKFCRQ
Description: The cells were cultured in F12 containing 10% FCS, 500 μg/ml Geneticin, and 100 U/ml penicillin-100 μg/ml streptomycin (all manufactured by Sigma-Aldrich Corp.) in a 5% CO2 incubator. […] Specifically, the cells were dissociated/collected using 50 mM Tris-HCl (pH=7.4). The resulting cells were homogenized using a Teflon (registered trademark) homogenizer and then centrifuged (48,000×g, 20 min, 4° C.). The pellet was resuspended in an appropriate amount of 50 mM Tris-HCl (pH=7.4) and stored at −80° C. until use. The amount of the protein in the membrane preparation was quantified using Dye Reagent Concentrate (manufactured by Bio-Rad Laboratories, Inc.) with bovine serum albumin (manufactured by Sigma-Aldrich Corp.) as a standard.
The reaction solution was reacted at room temperature for 30 minutes and then rapidly filtered by suction at a low pressure through glass fiber filter paper. The glass fiber filter paper was washed twice with 250 μl of 50 mM Tris-HCl (pH=7.4) and then added to a counting vial containing 4 ml of ACS-II (manufactured by Amersham Biosciences). Receptor binding radioactivity remaining on the filter paper was measured using a liquid scintillation counter.

The target in data set [3] is T3, CYP2D6 (Homo sapiens, UniProt P10635).
T3 construct: Pooled of Human Liver Microsomes was purchased from Xenotech, LLC; tissue Xenotech, LLC; host or cells: pooled human liver microsomes
In words: Screening test of the rate of CYP2D6 contribution in human liver microsomal metabolism. It counts as in vitro ADME. Also on record: key to Rate of CYP2D6 Contribution indeterminable due to high stability for human microsomal metabolism: —*^): The rate of CYP2D6 contribution was indeterminable in the present test due to high stability for human microsomal metabolism. To be noted: 1 mg/mL human liver microsomes, 1 μM test substance, 37° C.; for Test Example 4: Rate of CYP2D6 Contribution: with/without quinidine 4 μM. Here is the method: Screening Test of the Rate of CYP2D6 Contribution in Human Liver Microsomal Metabolism
0.2 mL of a 50 mM potassium phosphate buffer solution (pH 7.4) containing NADPH (final concentration: 3 mM, manufactured by Oriental Yeast Co., Ltd.), 1 mg/mL human liver microsomes (manufactured by XENOTECH, LLC), and a 1 μM test substance was heated on a water bath at 37° C. for metabolic reaction. After the reaction for 15 minutes or 30 minutes, methanol was added in a volume 3 times that of the reaction solution, and the mixture was stirred to terminate the reaction. This reaction solution was centrifuged for protein precipitation. Then, the supernatant was collected and subjected to LC-MS/MS analysis. The results were analyzed as follows:
The test substance was quantified, and time-dependent change in the amount of the substance remaining was logarithmically plotted. A metabolic rate was calculated from the slope.
The ratio of the metabolic rate obtained by the addition of quinidine (final concentration: 4 μM) to the reaction solution to the metabolic rate obtained without the addition was used as the rate of contribution of enzymes other than CYP2D6, and the rate of contribution obtained by subtracting this rate of contribution of other enzymes from the total was used as the rate of CYP2D6 contribution. Specifically, it was calculated according to the equation: Rate of contribution(%)={1−(metabolic rate [with quinidine]/metabolic rate[without quinidine])}×100. A smaller value of the rate of CYP2D6 contribution means smaller CYP2D6 contribution.
On the technique in general: Liver microsomes are vesicles of endoplasmic reticulum, rich in cytochrome P450 enzymes.

Data set [4] has as its target T3, CYP2D6. In words: CYP2D6 inhibition screening test. Format: in vitro ADME. To be noted: pooled human liver microsomes, substrate bufuralol, 37° C. 10 min, 1'-hydroxybufuralol by LC-MSMS; read-out: Test Example 3: CYP2D6 Inhibition IC50. As to the method:
CYP2D6 Inhibition Screening Test
Bufuralol was purchased from Sigma-Aldrich Corp., and Pooled of Human Liver Microsomes was purchased from Xenotech, LLC.
150 μL of Pooled Human Liver Microsomes (20 mg/ml), 12 mL of a 0.5 M potassium phosphate buffer, 1.2 mL of a 165 mM magnesium chloride solution, and 34.65 mL of distilled water were mixed.
Bufuralol was dissolved at a concentration of 2.0 mM in DMSO and then diluted 200-fold with distilled water.
3-3 Experimental Procedures
1. A 10 mM DMSO solution of a test drug was serially diluted 5-fold with DMSO for 4 serial dilutions to prepare 10, 2, 0.4, and 0.08 mM DMSO solutions.
2. Each test drug solution of the step 1. and DMSO were separately diluted 96-fold with a human liver microsome solution, and each dilution was dispensed and 80 μL of each dilution to microplates.
3. 10 μL of a substrate solution and 10 μL of a β-NADPH solution were added to the well of the step 2., followed by incubation at 37° C. for 10 min.
4. The reaction was terminated by the addition of 300 μL of methanol.
5. The reaction mixture was filtered, and LC-MSMS analysis was conducted.
3-4 Quantification and Calculation
The amount of 1′-hydroxybufuralol produced was quantified by LC-MSMS, and this amount was used as a metabolic activity of CYP2D6 for each well. The remaining activity of each sample was determined by comparison with the activity obtained from DMSO as a test drug. An IC50 value of CYP2D6 inhibition was determined from the test drug concentration and remaining activity. The IC50 value was calculated by linear interpolation between two points that span the remaining activity 50%. A larger value of IC50 of CYP2D6 inhibition means weaker CYP2D6 inhibition.

Data set [5] deals with T1, human serotonin transporter (h-SERT). In words: Screening test using [3H]citalopram binding for evaluating human serotonin reuptake inhibitory effect. To be noted: h-SERT/CHO membrane preparation, [3H]citalopram approximately 2 nM, room temperature 60 minutes; read-out: Test Example 1: h-SERT binding inhibition constant (Ki). An excerpt: CHO cells containing a human serotonin transporter (h-SERT) expressed therein (h-SERT/CHO) were used in the experiment.
1-2 Receptor Binding Experiment
A smaller value of the h-SERT binding inhibition constant Ki means a higher human serotonin reuptake inhibitory effect.

Each structure is given as a SMILES string.

T3 sequence (P10635 whole entry): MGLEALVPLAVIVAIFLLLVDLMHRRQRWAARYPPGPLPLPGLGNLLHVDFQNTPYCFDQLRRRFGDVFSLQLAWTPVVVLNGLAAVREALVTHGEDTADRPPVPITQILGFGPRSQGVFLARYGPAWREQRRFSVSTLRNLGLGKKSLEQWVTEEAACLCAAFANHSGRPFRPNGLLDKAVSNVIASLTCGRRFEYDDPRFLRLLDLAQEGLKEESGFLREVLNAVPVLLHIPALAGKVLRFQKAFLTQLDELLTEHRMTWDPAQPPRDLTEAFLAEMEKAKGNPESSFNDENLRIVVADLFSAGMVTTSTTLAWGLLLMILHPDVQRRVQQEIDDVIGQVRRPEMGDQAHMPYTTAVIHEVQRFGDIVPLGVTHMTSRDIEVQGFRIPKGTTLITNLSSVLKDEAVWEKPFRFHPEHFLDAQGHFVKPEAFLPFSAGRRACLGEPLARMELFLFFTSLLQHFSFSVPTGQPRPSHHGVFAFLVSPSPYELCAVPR
T1 sequence (P31645 whole entry): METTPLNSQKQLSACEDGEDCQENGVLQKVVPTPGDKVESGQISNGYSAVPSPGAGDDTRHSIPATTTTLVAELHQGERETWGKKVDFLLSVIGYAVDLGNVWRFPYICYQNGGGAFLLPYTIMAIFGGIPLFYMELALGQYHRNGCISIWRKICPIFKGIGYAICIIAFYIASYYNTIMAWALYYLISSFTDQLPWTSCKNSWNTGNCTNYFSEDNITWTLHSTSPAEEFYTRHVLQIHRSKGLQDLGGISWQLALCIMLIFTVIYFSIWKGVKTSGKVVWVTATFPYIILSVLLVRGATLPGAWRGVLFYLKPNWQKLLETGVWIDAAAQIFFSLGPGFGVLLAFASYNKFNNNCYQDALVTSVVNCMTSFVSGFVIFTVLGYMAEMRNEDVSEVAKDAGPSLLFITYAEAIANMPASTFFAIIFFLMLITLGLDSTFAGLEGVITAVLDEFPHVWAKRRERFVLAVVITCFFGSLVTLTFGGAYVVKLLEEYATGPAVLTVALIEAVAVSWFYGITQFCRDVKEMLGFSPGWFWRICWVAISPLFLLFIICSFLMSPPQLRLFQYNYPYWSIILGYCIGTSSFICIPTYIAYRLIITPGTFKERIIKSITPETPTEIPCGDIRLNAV

The term Ki denotes a dissociation constant, usually derived from enzyme kinetics or from competition with a known ligand. Broadly, the IC50 is the point on the concentration scale where inhibition reaches its midpoint. With `O=C1CCOc2ccc(CCN3CCC(Cc4ccc(Br)c(OCCO)c4)CC3)cc21` [Example 13, 6-(2-{4-[4-Bromo-3-(2-hydroxyethoxy)benzyl]piperidin-1-yl}ethyl)-2,3-dihydro-4H-chromen-4-one], the Ki came out at 51 nM in data set [1], 8.6 nM in data set [2] and 7.4 nM in data set [5]. Moreover, in data set [3], the “Rate of CYP2D6 Contribution indeterminable due to high stability for human microsomal metabolism” value is listed as “—*^)”. In data set [4], the IC50 was found to be 26900 nM.
On to `COCCOc1cc(CC2CCN(CCc3ccc4c(c3)C(=O)CC4)CC2)ccc1Br` [Example 1], for which the results for the Ki in data set [1], in data set [2] and in data set [5] were 8.9 nM, 4.5 nM and 0.87 nM, respectively. For the same molecule, the “Test Example 4: Rate of CYP2D6 Contribution” value in data set [3] is recorded as 36%. Further, in data set [4], the IC50 is 27900 nM.
As for `COCCOc1cc(CC2CCN(CCc3ccc4c(c3)C(=O)CCCO4)CC2)ccc1Br` [Example 6, 7-(2-{4-[4-Bromo-3-(2-methoxyethoxy)benzyl]piperidin-1-yl}ethyl)-3,4-dihydro-1-benzoxepin-5(2H)-one], the inhibitory constant (Ki) was found to be 1.6 nM in data set [1] and 1.2 nM in data set [5]. The “Test Example 4: Rate of CYP2D6 Contribution” value in data set [3] was 4.2%. Also, in data set [4], the IC50 is 24700 nM.
